Results published in the NIST ThermoML archive (doi:10.1016/j.fluid.2008.03.020).
Numbers after ± are expanded uncertainties.

Assays:
[1] = Liquid
[2] = refractive index (Na D-line) (dimensionless); conditions: Liquid, Standard Abbe refractometry

Structure (SMILES)	mass density ([1]; 293.15 K) [kg/m3]	refractive index ([2]; 293.15 K)	mass density ([1]; 298.15 K) [kg/m3]	refractive index ([2]; 298.15 K)	other results
ClCCCl [1,2-dichloroethane]	1252.9 ± 3.4	1.4196 ± 0.0007	–	–	vapor or sublimation pressure ([1]; 355.15 K): 95.5 ± 2 kPa
O=[N+]([O-])c1ccccc1 [nitrobenzene]	–	–	1198.3 ± 3.3	1.55 ± 0.0007	vapor or sublimation pressure ([1]; 481.45 K): 95.5 ± 2 kPa
Clc1ccccc1 [chlorobenzene]	–	–	1101 ± 3	1.5218 ± 0.0007	vapor or sublimation pressure ([1]; 402.85 K): 95.5 ± 2 kPa
ClC(Cl)C(Cl)Cl [1,1,2,2-tetrachloroethane]	1593 ± 4.5	1.494 ± 0.0007	–	–	vapor or sublimation pressure ([1]; 417.25 K): 95.5 ± 2 kPa
C=CC#N [acrylonitrile]	–	–	800.3 ± 2	1.3887 ± 0.0007	vapor or sublimation pressure ([1]; 348.75 K): 95.5 ± 2 kPa
